Measurements: patent publication US20110189670A1, “Circulating Tumor and Tumor Stem Cell Detection Using Genomic Specific Probes” (priority 2008, published 2011)

Test system: peripheral blood lymphocytes
Test: Cytokinesis-block micronucleus (CBMN) assay, spontaneous and NNK-induced chromosomal damage (MN, NPBs, NBUDs)
Type: cell-based, human
Conditions: 0.24 mM NNK, 2 hours
Description: The CBMN test was performed using the cytochalasin B technique described by Fenech and Morley and following recommendations from The International Collaborative Project on Micronucleus Frequency in Human Populations (HUMN Project) (22) to measure MN, NPBs and NBUDs in untreated cells and NNK-treated cells. Duplicate lymphocyte cultures were prepared for each study subject. Each culture contained 2.0×10^6 cells in 5 mL RPM1 1640 medium supplemented with 100 U/mL penicillin, 100 μg/mL streptomycin, 10% fetal bovine serum, and 2 mM L-glutamine (Gibco-Invitrogen, Carlsbad, Calif.) and 1% phytohemagglutinin (Remel, Lenexa, Kans.). For the cultures treated with NNK, 24 hours after initiation, the PBLs were centrifuged and the supernatant growth medium was removed and reserved. The PBLs were resuspended in 5 mL of serum-free RPM1 1640 medium supplemented with 0.24 mM NNK (CAS No 64091-91-4, National Cancer Institute, Midwest Carcinogen Repository, Kansas City, Mo.) and incubated at 37° C. in the presence of 5% COz for 2 hours. Next, the PBLs were washed twice with serum-free RPM1 1640, transferred to clean tubes and re-incubated for 48 hours in the reserved supernatant At 44 hours after initiation, cells were blocked in cytokinesis by adding cytochalasin B (Sigma, St Louis, Mo.; final concentration 4 μg/mL). Similarly, cultures for the determination of spontaneous damage (untreated cells) were handled in the same manner, with the exception of treatment with NNK. The total incubation time for all cultures was 72 hours. After incubation, the cells were fixed in 3:1 methanol:glacial acetic acid, dropped onto clean microscopic slides, air-dried and stained with Giemsa stain. For each sample, 1000 binucleated cells were scored blindly using a Nikon E-400 light optical microscope following the scoring criteria outlined by HUMN Project (2,11,23); the numbers of MN, NPBs, and NBUDs per 1000 binucleated cells were recorded For quality control, 20% of the slides were randomly selected and blindly rescored and the results compared with the original scoring
Tobacco smoke carcinogens and individual susceptibility play key roles in determining risk of lung cancer. There are a variety of biomarkers evaluating susceptibility to the carcinogenic effects of benzo[a]pyrene; however, no assays specifically evaluate susceptibility to the nicotine-derived nitrosamine 4-(methylnitrosamino)-1-(3-pyridyl)-1-butanone (NNK), a potent inducer of lung adenocarcinoma. In this case-control study, the inventors modified the cytokinesis-block micronucleus (CBMN) assay, an established biomarker for DNA damage and genomic instability, to evaluate susceptibility to NNK by measuring the frequency of NNK-induced chromosomal damage endpoints (micronuclei [MN]; nucleoplasmic bridges [NPBs] and nuclear buds “BUDS]) per 1000 binucleated peripheral blood lymphocytes. […] Forty-seven percent of the cases (compared with 12% of the controls) had ≧4 spontaneous MN, 66% of the cases (and no controls) had ≧4 spontaneous NPBs, and 25% of cases (versus 5% of controls) had ≧1 spontaneous NBUDs (P<001). Similarly, 40% of the cases (versus 6% of the controls) had ≧5 NNK-induced MN, 89% of the cases (and no controls) had ≧6 induced NPBs, and 23% of the cases (vs 2% of the controls had 2 induced NBUDs (P<001). As continuous variables, spontaneous MN, NPBs and NBUDs were associated with 2-, 29-, and 6-fold increases in risk for cancer. Similarly, NNK-induced 2 3-, 45.5-, and 10-fold increases in risk for cancer. The inventors also evaluated the use of results from the CBMN assay to predict cancer risk based on the numbers of MN, NPBs, and NBUDs defined by percentile cut-points in control data. The probability of being a cancer patient were 96%, 98% and 100% when using the 95th percentiles of spontaneous and NNK-induced MN, NPBs and NBUDs, respectively, in combination. […]

CN(CCCC(=O)c1cccnc1)N=O [NNK, 4-(methylnitrosamino)-1-(3-pyridyl)-1-butanone]
subjects with 2 induced NBUDs per 1000 binucleated peripheral blood lymphocytes (lung cancer cases (139)): 23% | subjects with ≧5 NNK-induced MN per 1000 binucleated peripheral blood lymphocytes (lung cancer cases (139)): 40% | subjects with ≧6 induced NPBs per 1000 binucleated peripheral blood lymphocytes (lung cancer cases (139)): 89% | subjects with 2 induced NBUDs per 1000 binucleated peripheral blood lymphocytes (matched controls (130)): 2% | subjects with ≧5 NNK-induced MN per 1000 binucleated peripheral blood lymphocytes (matched controls (130)): 6% | subjects with ≧6 induced NPBs per 1000 binucleated peripheral blood lymphocytes (matched controls (130)): no controls
